Data reported in patent publication US20240138417A1, “TRICHODERMA-BASED BIOENHANCER FOR FOLIAR APPLICATION IN PLANTS” (YPF TECNOLOGÍA S.A., priority 2022, published 2024).

Legend:
[1] = tested on: cucumber cotyledons (Cucumis sativus var. Runner); experiment: Cytokinin activity, cucumber cotyledons greening bioassay (chlorophyll content); settings: incubated 20 h, then light 16 hs; SPAD detector and acetone extraction
Experimental: Cytokinin Activity • Cytokinin activity was determined by quantifying the chlorophyll content in cucumber cotyledons (Fletcher et al., 1982). Briefly, cucumber (Cucumis sativus var. Runner) seeds were germinated and grown in darkness for 7 days. Then, the cotyledons were cut and incubated for 20 h under different concentrations of the formulation of Example 5 (0.1, 1, 10 and 100% v/v). As a positive control, different concentrations of a cytokinin analog, kinetin, were used (0.01, 0.1, 1 and 10 μg/ml). Then the cotyledons were exposed to light for 16 hs, and the chlorophyll content was determined by two methods: by means of a manual SPAD detector (Chlorophyll meter SPAD-502, Konica Minolta), and by extracting the chlorophyll with acetone (Arnon 1949). Three independent assays were carried out, with 8 cotyledons per treatment (N=24).

[2] = tested on: Arabidopsis thaliana seedlings; experiment: Auxin activity, root growth bioassay in A. thaliana seedlings; assay type: in vivo; settings: 4-days old seedlings, MS-Agar; formulation 0.1, 1, 10, 25% v/v; IAA 1, 10 and 100 nM
Experimental: Auxin Activity • Auxin activity was determined by measuring the growth of the main root in seedlings of Arabidopsis thaliana, and the amount of side roots to estimate the root density according to Iglesias et al. (2014). Briefly, 4-days old A. thaliana seedlings were grown in a MS-Agar medium supplemented with different concentrations of the formulation of Example 5 (0.1, 1, 10, 25% v/v). As reference, different concentrations of indole-acetic acid (IAA) were used (1, 10 and 100 nM). Three independent assays were carried out, with 8 seedlings per treatment (N=24).

Structure (SMILES) | greening of cotyledons (chlorophyll content) [1] | growth of the main root [2] | number of side roots [2]
c1coc(CNc2ncnc3[nH]cnc23)c1 [kinetin] | stimulated the greening of the etiolated cotyledons depending on the dose | – | –
O=C(O)Cc1c[nH]c2ccccc12 [IAA, indole-acetic acid] | – | dose-dependent shortening of the main root | increase in the number of side roots
